Like-named read-outs stand apart in the source and are kept apart here.
Legend:
[1] = system: p-ERK, p-p38, JNK MAPK, p-NF-κB p65, p-c-JUN; assay: Western blot of MAPK, NF-κB and c-JUN signaling in UVB-induced 3T3 fibroblasts; type: cell-based, mouse; details: 3T3 cells; for phosphorylation level of JNK MAPK / phosphorylation levels of ERK and p38 MAPKs: PDT after UVB treatment
Text: One of the major factors of UVB-induced skin aging is inflammation-mediated skin aging. In UVB-induced skin photoaging, increased intracellular ROS can promote MMP production by activating the MAPK, AP-1, and NF-κB pathways. […] Ce6-diPEG-curcumin-PDT and Ce6-propane-curcumin-PDT lowered the phosphorylation levels of ERK and p38 MAPKs but not those of JNK MAPK.
Figure 9 Effect of Ce6-curcumin derivatives-PDT on MAPK, NF-κB and c-JUN signaling proteins. Protein expressions of p-p38, p-38, p-ERK, ERK, p-c-JUN, c-JUN, p-p65 and p65 in the UVB-induced murine 3T3 fibroblast cell line after Ce6-diPEG-curcumin (150 and 200 μΜ) and Ce6-propane-curcumin (75 and 100 μΜ)-PDT treatment. Representative bars are expressed as mean only.
The cells were lysed with RIPA lysis buffer containing protease inhibitor cocktails (Gen-DEPOT, Katy, TX, USA). Cell lysates were vortexed and centrifuged at 13,000 rpm for 15 min at 4 °C. Protein concentration was determined using the Bradford protein assay kit, and the same amount of protein was separated by SDS-PAGE gel. Then, proteins were transferred to a polyvinylidene fluoride (PVDF) membrane. Further, the membranes were blocked with a blocking solution containing 5% skim milk in Tris-buffered saline containing Tween 20 (TBST) for 1 h and incubated overnight with the primary antibody diluted in 5% skim milk in TBST at 4 °C. Then, the membrane was rinsed with TBST for 30 min and incubated with horseradish peroxidase-conjugated secondary antibodies in a blocking solution for 1 h. All bands were visualized by using an enhanced chemiluminescence (ECL) kit (Pierce, Rockford, IL, USA) under a luminescent image analyzer (Amersham, GE Healthcare, Chicago, IL, USA). The primary antibodies against MMP-1 were obtained from Thermo Fischer Scientific Inc. (NYSE: TMO). Antibodies directed against p-p65, p65, p-p38, p38, p-ERK, ERK, p-c-JUN, and c-JUN were purchased from Cell Signaling Technology Inc. (Beverley, MA, USA). COX-2 and β-Actin antibodies were from Santa Cruz Biotechnology (Santa Cruz, CA, USA), while TNF-α antibodies were procured from Novus Biologicals, Inc. (Centennial, CO, USA).

MMP-2 = assay: Gelatin zymography of MMP-2 in UVB-exposed Hs68 cells; type: cell-based, human; details: UVB 200 mJ/cm^2, LED 20 J/cm^2, Hs68
Text: Since MMP-2 is a […] that plays an important role in photoaging, we examined the effect of Ce6-curcumin derivatives and LED treatment on the enzyme activities of UV-induced MMP-2 by gelatin zymography. On gelatin zymography, UVB irradiation led to the activation of MMP-2 in Hs68 cells, and this increase was inhibited by Ce6-curcumin derivatives along with LED treatments. On increasing the dose of the Ce6-curcumin derivatives, the MMP-2 was decreased (Figure 7A–C).
Data are expressed as mean ± SD from at least three independent experiments and were analyzed by one-way ANOVA with Tukey’s post hoc test, * p < 0.01 compared with control. ^# p < 0.05 compared with the UVB and LED-treated groups.
MMP-2 activity in cell culture medium was evaluated by gelatin zymography assay as described. After UVB (200 mJ/cm^2) irradiation, Hs68 cells were cultured for 24 h. Ce6-curcumin derivatives were diluted into a medium containing 1% FBS and cultured for 30 min. After 30 min, the LED was irradiated with 20 J/cm^2, cultured for 3 h, washed with 1× PBS, and 300 μL of FBS-free medium was added and cultured for 44 h. […] The activity of MMPs was measured by quantifying the transparent band by proteolytic activity after staining with Coomassie Brilliant Blue staining solution and further distaining with water, methanol, and acetic acid (50:40:10).

Hs68 cells = assay: MTT cell viability of Hs68 cells with or without LED light; type: cell-based, human; details: for IC50: Homo sapiens, light or radiation study, Hs68 cells; for cytotoxicity for Hs68 cells: dark, up to 1000 nM
Protocol: Data were represented as mean ± SD from at least three independent experiments and analyzed by one-way ANOVA with Tukey’s post hoc test, * p < 0.01, compared with vehicle-treated control.
Hs68 and BALB/c 3T3 cell viability was measured using a 3-[4,5-dimethylthylthiazol-2-yl]-2,5 diphenyl tetrazolium bromide (MTT) assay. The cells were cultured in 24-well plates at a density of 3 × 10^4 cells per well or BALB/c 3T3 cells at a density of 1 × 10^4 cells per well. […] The Hs68 cells were then exposed to LED light (660 nm; 89 W/m^2; 20 J/cm^2) for 37 min 27 s and incubated for 3 h. […] The cells were washed and treated with MTT, after which the plates were incubated at 37 °C in the dark for 2 h. After the formation of formazan, 100 µL of DMSO was added, and the absorbance was measured at 570 nm using a microtiter plate reader (Thermo-scientific, Skanlt software 5.0, Waltham, MA, USA)

[2] = ABTS radical scavenging activity; type: biochemical
Protocol: […] in 2.5 mM potassium persulfate for more than 16 h to develop 7 mM 2,2′-azinobis-(3-ethylbenzothiazoline-6-sulfonic acid diammonium salt) (ABTS), and ethanol was diluted to obtain an absorbance of 0.3 at 620 nm. Each composite sample was diluted by concentration, and 100 μL of the sample was put into each well along with 50 μL each of ABTS reagent and solvent; reacted at room temperature for 10 min, and absorbance was measured at 620 nm. ABTS activity inhibition (%) = 100 − [test group-blank]/(control group-blank) × 100]

[3] = LED 660 nm 20 J/cm^2, MTT, read-out: Phototoxicity (IC50)
[4] = without LED irradiation, MTT, read-out: Dark Toxicity (IC50)
[5] = LED light, read-out: LED Condition (EC50, μM) ABTS radical scavenging
[6] = dark, read-out: Dark Condition (EC50, μM) ABTS radical scavenging

Compound	UVB-induced increases in p-NF-κB p65 and p-c-JUN ([1]; 150 and 200 μM followed by laser irradiation)	phosphorylation level of JNK MAPK [1]	phosphorylation levels of ERK and p38 MAPKs [1]	UVB-induced MMP-2 expression (gelatin zymography) (MMP-2; 200 nM)	IC50 (Hs68 cells; [3])	IC50 (Hs68 cells; [4])	cytotoxicity for Hs68 cells (Hs68 cells)	EC50 [2, 5]	ABTS EC50 value compared to the standard antioxidant 5-ALA hydrochloride ([2]; dark)	EC50 [2, 6]	UVB-induced increases in p-NF-κB p65 and p-c-JUN ([1]; 75 and 100 μM followed by laser irradiation)	UVB-induced MMP-2 expression (gelatin zymography) (MMP-2; 100 nM)	phototoxicity toward human dermal fibroblasts, Hs68 (Hs68 cells; with PDT, up to a dose of 1000 nM)
C=Cc1c(C)c2cc3nc(c(CC(=O)OC)c4[nH]c(cc5nc(cc1[nH]2)C(C)=C5CC)c(C)c4C(=O)NCCCOCCOCCOCCCNC(=O)CCCC(=O)Oc1ccc(/C=C/C(=O)CC(=O)/C=C/c2ccc(O)c(OC)c2)cc1OC)C(CCC(=O)OC)C3C (centres unmarked) [Ce6-diPEG-curcumin]	greatly reversed this trend	not	lowered	highest attenuation of MMP-2 expression	0.693 µM	≥ 1 µM	almost no cytotoxicity	22.3 ± 2.62 µM	~74%	15.51 ± 0.01 µM	–	–	–
C=Cc1c(C)c2cc3nc(c(CC(=O)OC)c4[nH]c(cc5nc(cc1[nH]2)C(C)=C5CC)c(C)c4C(=O)NCCCNC(=O)CCCC(=O)Oc1ccc(/C=C/C(=O)CC(=O)/C=C/c2ccc(O)c(OC)c2)cc1OC)C(CCC(=O)OC)C3C (centres unmarked) [Ce6-propane-curcumin]	–	not	lowered	–	≥ 1 µM	≥ 1 µM	almost no cytotoxicity	34.9 ± 8.16 µM	–	18.9 ± 3.04 µM	greatly reversed this trend	significant reductions	no phototoxicity

Source: PMC10487708, “Chlorin E6-Curcumin-Mediated Photodynamic Therapy Promotes an Anti-Photoaging Effect in UVB-Irradiated Fibroblasts” (International Journal of Molecular Sciences, 2023)
